{
  "source": "patent US6471976B1",
  "about": "“Copper complex bactericide/fungicide and method of making same” (priority 1990, dated 2002)",
  "test_system": "Colletotrichum lagenarium",
  "test": "Efficacy against Colletotrichum lagenarium on cucumber plants",
  "settings": "in vivo",
  "data": [
    {"compound": "[Cu]", "note": "[copper]", "values": [
      {"measurement": "estimated LD90 rate for the control of Colletotrichum lagenarium on cucumber plants", "result": 200, "unit": "ppm"}
    ]}
  ]
}
